The values below come from article PMC8398255, “Synthesis of 3,5-Bis(trifluoromethyl)phenyl-Substituted Pyrazole Derivatives as Potent Growth Inhibitors of Drug-Resistant Bacteria” (Molecules, 2021).

≈ marks a conversion by molar mass, not a printed value.

Holding throughout (assay): MIC, microdilution (CLSI)
What all share (format): cell-based
In general terms: Dilution methods test growth across graded concentrations, often in twofold steps.

In assay [1] the test system is S. epidermidis ATCC 700296 (Se). Conditions: Staphylococcus epidermidis, ATCC700296; Se, S. epidermidis ATCC 700296; n = 3; read-out: MIC. The procedure:
(§1) Compounds were dissolved in dimethyl sulfoxide (DMSO) to achieve a starting concentration of 32 µg/mL as described by us previously. Compounds were further diluted two-fold across the 96-well honeycomb plate columns in cation adjusted Mueller Hinton broth (CAMHB), and bacterial culture was added. Plates were incubated for 18–20 h at 35 ℃ before determining the minimum concentrations at which wells had no visible turbidity to the naked eye. The MIC values were determined from at least a duplicate result obtained from three independent experiments using fresh bacterial cultures on different days.

Assay [2] relates to Bacillus subtilis ATCC 6623 (Bs). To be noted: ATCC6623; Bs, Bacillus subtilis ATCC 6623; n = 3; read-out: MIC. The procedure:
as §1

Assay [3] concerns S. aureus ATCC 33591 (Sa91). To be noted: Staphylococcus aureus, ATCC33591; Sa91, methicillin-resistant S. aureus ATCC 33591; n = 3; read-out: MIC. The procedure: as §1
For assay [4], the system named is S. aureus ATCC 700699 (Sa99). To be noted: Staphylococcus aureus, ATCC700699; Sa99, methicillin-resistant S. aureus ATCC 700699; n = 3; read-out: MIC. The procedure:
as §1

Assay [5] relates to E. faecium ATCC 700221 (Ef21). Conditions: Enterococcus faecium, ATCC 700221 / VRE; Ef21, vancomycin-resistant (VRE) E. faecium ATCC 700221; n = 3; read-out: MIC. The procedure: as §1
The test system of assay [6] is S. aureus BAA-2312 (Sa12). To be noted: Staphylococcus aureus, BAA2312; Sa12, methicillin-resistant S. aureus BAA-2312; n = 3; read-out: MIC. The procedure: as §1
For assay [7], the system named is S. aureus ATCC 33592 (Sa92). Conditions: Staphylococcus aureus, ATCC33592; Sa92, methicillin-resistant S. aureus ATCC 33592; n = 3; read-out: MIC. The procedure: as §1
In assay [8] the test system is E. faecalis ATCC 51299 (Ef99). Conditions: Enterococcus faecalis, ATCC 51299 / VRE; Ef99, vancomycin-resistant (VRE) E. faecalis ATCC 51299; n = 3; read-out: MIC. The procedure: as §1
For assay [9], the system named is S. aureus ATCC 25923 (Sa23). Conditions: Staphylococcus aureus, ATCC25923; Sa23, antibiotic susceptible S. aureus ATCC 25923; n = 3; read-out: MIC. The procedure: as §1
The subject of assay [10] is E. faecalis ATCC 29212 (Ef12). To be noted: Enterococcus faecalis, ATCC29212; Ef12, antibiotic susceptible E. faecalis ATCC 29212; n = 3; read-out: MIC. The procedure: as §1

Turning to `COc1ccc(NCc2cn(-c3ccc(C(=O)O)cc3)nc2-c2cc(C(F)(F)F)cc(C(F)(F)F)c2)cc1` [Compound 4, 4-[3-[3,5-Bis(trifluoromethyl)phenyl]-4-[(4-methoxyanilino)methyl]pyrazol-1-yl] benzoic acid], the minimal inhibitory concentration (MIC) (in general, the least concentration at which growth counts as inhibited) in assay [1] was 16 µg/mL (≈ 29.9 µM); in [2], 4 µg/mL (≈ 7.47 µM); in assay [3], 8 µg/mL (≈ 14.9 µM); in assay [4], 8 µg/mL (≈ 14.9 µM); in [5], 8 µg/mL (≈ 14.9 µM); in [6] it was 4 µg/mL (≈ 7.47 µM). For the same compound, the minimal inhibitory concentration (MIC) in assay [7] came out at 8 µg/mL (≈ 14.9 µM); in assay [8], 16 µg/mL (≈ 29.9 µM); in assay [9], 8 µg/mL (≈ 14.9 µM); in [10], 16 µg/mL (≈ 29.9 µM).
For the compound `O=C(O)c1ccc(-n2cc(CNc3ccc(F)cc3)c(-c3cc(C(F)(F)F)cc(C(F)(F)F)c3)n2)cc1` [Compound 8, 4-[3-[3,5-Bis(trifluoromethyl)phenyl]-4-[(4-fluoroanilino)methyl]pyrazol-1-yl] benzoic acid], the minimal inhibitory concentration (MIC) in assay [1] worked out at 4 µg/mL (≈ 7.64 µM); in assay [2] it was 1 µg/mL (≈ 1.91 µM); in [3] it was 2 µg/mL (≈ 3.82 µM); in [4], 4 µg/mL (≈ 7.64 µM); in assay [5], 4 µg/mL (≈ 7.64 µM); in assay [6], 2 µg/mL (≈ 3.82 µM). The MIC in [7] is 2 µg/mL (≈ 3.82 µM); in assay [8], 4 µg/mL (≈ 7.64 µM); in assay [9] it was 2 µg/mL (≈ 3.82 µM); in assay [10], 4 µg/mL (≈ 7.64 µM).
With `O=C(O)c1ccc(-n2cc(CNc3ccc(F)c(Cl)c3F)c(-c3cc(C(F)(F)F)cc(C(F)(F)F)c3)n2)cc1` [Compound 27, 4-[3-[3,5-Bis(trifluoromethyl)phenyl]-4-[(3-chloro-2,4-difluoro-anilino)methyl]pyraz-ol-1-yl] benzoic acid], the minimum inhibitory concentration (MIC) in [1] amounted to 2 µg/mL (≈ 3.47 µM); in assay [2], 1 µg/mL (≈ 1.74 µM); in [3], 1 µg/mL (≈ 1.74 µM); in assay [4], 2 µg/mL (≈ 3.47 µM); in assay [5], 1 µg/mL (≈ 1.74 µM); in [6] it was 1 µg/mL (≈ 1.74 µM). Also, the minimum inhibitory concentration (MIC) in [7] stood at 1 µg/mL (≈ 1.74 µM); in assay [8] it was 2 µg/mL (≈ 3.47 µM); in [9] it was 1 µg/mL (≈ 1.74 µM); in assay [10], 2 µg/mL (≈ 3.47 µM).
As for `O=C(O)c1ccc(-n2cc(CNc3cc(F)c(F)c(F)c3)c(-c3cc(C(F)(F)F)cc(C(F)(F)F)c3)n2)cc1` [Compound 25, 4-[3-[3,5-Bis(trifluoromethyl)phenyl]-4-[(3,4,5-trifluoroanilino)methyl]pyrazol-1-yl] benzoic acid], the MIC in assay [1] was determined as 4 µg/mL (≈ 7.15 µM); in assay [2], 1 µg/mL (≈ 1.79 µM); in assay [3] it was 2 µg/mL (≈ 3.58 µM); in assay [4], 4 µg/mL (≈ 7.15 µM); in [5] it was 2 µg/mL (≈ 3.58 µM); in assay [6], 2 µg/mL (≈ 3.58 µM). Moreover, the minimum inhibitory concentration (MIC) in [7] came out at 2 µg/mL (≈ 3.58 µM); in [8], 4 µg/mL (≈ 7.15 µM); in [9], 4 µg/mL (≈ 7.15 µM); in [10], 4 µg/mL (≈ 7.15 µM).
`O=C(O)c1ccc(-n2cc(CNc3ccc(F)c(F)c3F)c(-c3cc(C(F)(F)F)cc(C(F)(F)F)c3)n2)cc1` [Compound 24, 4-[3-[3,5-Bis(trifluoromethyl)phenyl]-4-[(2,3,4-trifluoroanilino)methyl]pyrazol-1-yl] benzoic acid]: the minimum inhibitory concentration (MIC) came to 4 µg/mL (≈ 7.15 µM) in [1]; 1 µg/mL (≈ 1.79 µM) in assay [2]; 1 µg/mL (≈ 1.79 µM) in assay [3]; 2 µg/mL (≈ 3.58 µM) in [4]; 1 µg/mL (≈ 1.79 µM) in assay [5]; 1 µg/mL (≈ 1.79 µM) in [6]. The minimum inhibitory concentration (MIC) came out at 1 µg/mL (≈ 1.79 µM) in [7], 2 µg/mL (≈ 3.58 µM) in [8], 2 µg/mL (≈ 3.58 µM) in [9] and 2 µg/mL (≈ 3.58 µM) in assay [10].
On to `O=C(O)c1ccc(-n2cc(CNc3cccc(F)c3)c(-c3cc(C(F)(F)F)cc(C(F)(F)F)c3)n2)cc1` [Compound 7, 4-[3-[3,5-Bis(trifluoromethyl)phenyl]-4-[(3-fluoroanilino)methyl]pyrazol-1-yl] benzoic acid], for which the MIC in assay [1] was 4 µg/mL (≈ 7.64 µM); in assay [2], 2 µg/mL (≈ 3.82 µM); in assay [3], 4 µg/mL (≈ 7.64 µM); in [4] it was 4 µg/mL (≈ 7.64 µM); in assay [5], 4 µg/mL (≈ 7.64 µM); in [6], 2 µg/mL (≈ 3.82 µM). Also, the minimum inhibitory concentration (MIC) in [7] came to 2 µg/mL (≈ 3.82 µM); in assay [8] it was 4 µg/mL (≈ 7.64 µM); in assay [9], 4 µg/mL (≈ 7.64 µM); in assay [10] it was 8 µg/mL (≈ 15.3 µM).
As to `O=C(O)c1ccc(-n2cc(CNc3ccc(Cl)cc3)c(-c3cc(C(F)(F)F)cc(C(F)(F)F)c3)n2)cc1` [Compound 9, 4-[3-[3,5-Bis(trifluoromethyl)phenyl]-4-[(4-chloroanilino)methyl]pyrazol-1-yl] benzoic acid], the MIC in assay [1] worked out at 2 µg/mL (≈ 3.7 µM); in assay [2], 1 µg/mL (≈ 1.85 µM); in [3], 2 µg/mL (≈ 3.7 µM); in assay [4], 2 µg/mL (≈ 3.7 µM); in assay [5], 2 µg/mL (≈ 3.7 µM); in [6] it was 1 µg/mL (≈ 1.85 µM). Further, the minimum inhibitory concentration (MIC) in assay [7] was found to be 1 µg/mL (≈ 1.85 µM); in assay [8], 2 µg/mL (≈ 3.7 µM); in [9], 2 µg/mL (≈ 3.7 µM); in assay [10], 2 µg/mL (≈ 3.7 µM).
Turning to `O=C(O)c1ccc(-n2cc(CNc3ccc(Br)c(C(F)(F)F)c3)c(-c3cc(C(F)(F)F)cc(C(F)(F)F)c3)n2)cc1` [Compound 23, 4-[3-[3,5-Bis(trifluoromethyl)phenyl]-4-[[4-bromo-3-(trifluoromethyl)anilino]methyl]pyrazol-1-yl] benzoic acid], the MIC in [1] stood at 4 µg/mL (≈ 6.13 µM); in assay [2], 1 µg/mL (≈ 1.53 µM); in assay [3], 1 µg/mL (≈ 1.53 µM); in assay [4], 2 µg/mL (≈ 3.07 µM); in assay [5] it was 2 µg/mL (≈ 3.07 µM); in assay [6] it was 2 µg/mL (≈ 3.07 µM). Moreover, the minimum inhibitory concentration (MIC) stood at 1 µg/mL (≈ 1.53 µM) in [7], 2 µg/mL (≈ 3.07 µM) in assay [8], 1 µg/mL (≈ 1.53 µM) in [9] and 2 µg/mL (≈ 3.07 µM) in assay [10].
For `CC(C)(C)c1ccc(NCc2cn(-c3ccc(C(=O)O)cc3)nc2-c2cc(C(F)(F)F)cc(C(F)(F)F)c2)cc1` [Compound 3, 4-[3-[3,5-Bis(trifluoromethyl)phenyl]-4-[(4-tert-butylanilino)methyl]pyrazol-1-yl] benzoic acid], the MIC in assay [1] was determined as 1 µg/mL (≈ 1.78 µM); in assay [2], 2 µg/mL (≈ 3.56 µM); in [3], 1 µg/mL (≈ 1.78 µM); in assay [4], 2 µg/mL (≈ 3.56 µM); in assay [5] it was 2 µg/mL (≈ 3.56 µM); in assay [6], 1 µg/mL (≈ 1.78 µM). Besides, the minimum inhibitory concentration (MIC) in assay [7] came to 2 µg/mL (≈ 3.56 µM); in assay [8] it was 0.5 µg/mL (≈ 0.89 µM); in assay [9], 1 µg/mL (≈ 1.78 µM); in [10] it was 1 µg/mL (≈ 1.78 µM).
As for `O=C(O)c1ccc(-n2cc(CNc3cc(Cl)c(F)c(Cl)c3F)c(-c3cc(C(F)(F)F)cc(C(F)(F)F)c3)n2)cc1` [Compound 30, 4-[3-[3,5-Bis(trifluoromethyl)phenyl]-4-[(3,5-dichloro-2,4-difluoro-anilino)methyl]pyrazol-1-yl] benzoic acid], the MIC was 2 µg/mL (≈ 3.28 µM) in assay [1]; 1 µg/mL (≈ 1.64 µM) in assay [2]; 1 µg/mL (≈ 1.64 µM) in assay [3]; 2 µg/mL (≈ 3.28 µM) in [4]; 1 µg/mL (≈ 1.64 µM) in assay [5]; 2 µg/mL (≈ 3.28 µM) in assay [6]. The MIC in assay [7] was 1 µg/mL (≈ 1.64 µM); in [8], 2 µg/mL (≈ 3.28 µM); in assay [9] it was 1 µg/mL (≈ 1.64 µM); in assay [10], 2 µg/mL (≈ 3.28 µM).
For the compound `O=C(O)c1ccc(-n2cc(CNc3cccc(Br)c3)c(-c3cc(C(F)(F)F)cc(C(F)(F)F)c3)n2)cc1` [Compound 10, 4-[3-[3,5-Bis(trifluoromethyl)phenyl]-4-[(3-bromoanilino)methyl]pyrazol-1-yl] benzoic acid], the MIC in assay [1] worked out at 4 µg/mL (≈ 6.85 µM); in assay [2], 2 µg/mL (≈ 3.42 µM); in [3] it was 2 µg/mL (≈ 3.42 µM); in [4] it was 2 µg/mL (≈ 3.42 µM); in assay [5], 4 µg/mL (≈ 6.85 µM); in assay [6], 2 µg/mL (≈ 3.42 µM). Also, the MIC in assay [7] was 2 µg/mL (≈ 3.42 µM); in [8] it was 2 µg/mL (≈ 3.42 µM); in assay [9] it was 2 µg/mL (≈ 3.42 µM); in assay [10], 4 µg/mL (≈ 6.85 µM).
